# Test results: patent US20090124657A1, “PHARMACEUTICAL COMPOSITIONS COMPRISING MONTELUKAST” (priority 2007, published 2009)
# Assay: Susceptibility of montelukast sodium to degradation
# Assay type: physicochemical
structure (smiles),measurement,setting,value
"CC(C)(O)c1ccccc1CC[C@@H](SCC1(CC(=O)O)CC1)c1cccc(/C=C/c2ccc3ccc(Cl)cc3n2)c1 [Montelukast sodium, [R-(E)]-1-[[[1-[3-[2-(7-chloro-2-quinolinyl)ethenyl]phenyl]-3-[2-(1-hydroxy-1-methylethyl)phenyl]propyl]thio]methyl]cyclopropaneacetic acid]",Susceptibility to oxidative degradation (including atmospheric oxygen),significant increase in mok-3 sulfoxide impurity,highly susceptible
same,Susceptibility to acid hydrolysis,significant increase in styrene impurity,highly susceptible
